Assay results from PubChem BioAssay (NCI).
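Interpolation was linear, between the two tested concentrations surrounding the appropriate level; five concentrations were tested over 48 hours in 96-well plates. The concentration for full growth arrest is given as TGI.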

Columns and labels:
Assay in all cases: growth of human tumour cells (NCI), 48 h
XF 498 CNS = test system: XF 498 CNS
HT29 colon = test system: HT29 colon
LOX IMVI melanoma = test system: LOX IMVI melanoma
ACHN renal = test system: ACHN renal
SK-MEL-28 melanoma = test system: SK-MEL-28 melanoma
NCI-H23 lung = test system: NCI-H23 lung
CCRF-CEM leukemia = test system: CCRF-CEM leukemia
SNB-75 CNS = test system: SNB-75 CNS
NCI-H226 lung = test system: NCI-H226 lung
M19-MEL melanoma = test system: M19-MEL melanoma
M14 melanoma = test system: M14 melanoma
HL-60(TB) leukemia = test system: HL-60(TB) leukemia
SF-295 CNS = test system: SF-295 CNS
K-562 leukemia = test system: K-562 leukemia
SF-539 CNS = test system: SF-539 CNS
RPMI-8226 leukemia = test system: RPMI-8226 leukemia
OVCAR-8 ovarian = test system: OVCAR-8 ovarian
HCC-2998 colon = test system: HCC-2998 colon
EKVX NSCLC = test system: EKVX NSCLC
DMS 273 small cell lung = test system: DMS 273 small cell lung
NCI-H460 lung = test system: NCI-H460 lung
OVCAR-4 ovarian = test system: OVCAR-4 ovarian
DMS 114 small cell lung = test system: DMS 114 small cell lung
SN12C renal = test system: SN12C renal
HOP-18 NSCLC = test system: HOP-18 NSCLC
SF-268 CNS = test system: SF-268 CNS
UO-31 renal = test system: UO-31 renal
COLO 205 colon = test system: COLO 205 colon
SR leukemia = test system: SR leukemia
A549 NSCLC = test system: A549 NSCLC
MOLT-4 leukemia = test system: MOLT-4 leukemia
SNB-19 CNS = test system: SNB-19 CNS
SNB-78 CNS = test system: SNB-78 CNS
OVCAR-3 ovarian = test system: OVCAR-3 ovarian
TK-10 renal = test system: TK-10 renal
CAKI-1 renal = test system: CAKI-1 renal
KM12 colon = test system: KM12 colon
HCT-116 colon = test system: HCT-116 colon
SK-MEL-2 melanoma = test system: SK-MEL-2 melanoma
SK-MEL-5 melanoma = test system: SK-MEL-5 melanoma
SW-620 colon = test system: SW-620 colon
MALME-3M melanoma = test system: MALME-3M melanoma
HOP-62 NSCLC = test system: HOP-62 NSCLC
HCT-15 colon = test system: HCT-15 colon
NCI-H522 lung = test system: NCI-H522 lung
DLD-1 colon = test system: DLD-1 colon
OVCAR-5 ovarian = test system: OVCAR-5 ovarian
UACC-257 melanoma = test system: UACC-257 melanoma
786-0 renal = test system: 786-0 renal

Cc1c2[nH]c3ccc(Br)cc3c2c(C)c2[nH]ccc(=O)c12
TGI (XF 498 CNS): 29.7 µM
TGI (HT29 colon): 30.2 µM
TGI (LOX IMVI melanoma): 32.7 µM
TGI (ACHN renal): 22.5 µM
TGI (SK-MEL-28 melanoma): 34.8 µM
TGI (NCI-H23 lung): 37.8 µM
TGI (CCRF-CEM leukemia): 31.6 µM
TGI (SNB-75 CNS): > 100 µM
TGI (NCI-H226 lung): 35.9 µM
TGI (M19-MEL melanoma): 29.6 µM
TGI (M14 melanoma): 30.9 µM
TGI (HL-60(TB) leukemia): 38.5 µM
TGI (SF-295 CNS): 28.7 µM
TGI (K-562 leukemia): 55.7 µM
TGI (SF-539 CNS): 32 µM
TGI (RPMI-8226 leukemia): 41.5 µM
TGI (OVCAR-8 ovarian): 76.9 µM
TGI (HCC-2998 colon): 31.1 µM
TGI (EKVX NSCLC): 33.5 µM
TGI (DMS 273 small cell lung): 27 µM
TGI (NCI-H460 lung): 23.1 µM
TGI (OVCAR-4 ovarian): 31.3 µM
TGI (DMS 114 small cell lung): 35.2 µM
TGI (SN12C renal): 32.4 µM
TGI (HOP-18 NSCLC): 22.9 µM
TGI (SF-268 CNS): 32.6 µM
TGI (UO-31 renal): 24.2 µM
TGI (COLO 205 colon): 27.1 µM
TGI (SR leukemia): 37.9 µM
TGI (A549 NSCLC): 25.7 µM
TGI (MOLT-4 leukemia): 28 µM
TGI (SNB-19 CNS): 33.2 µM
TGI (SNB-78 CNS): 35.7 µM
TGI (OVCAR-3 ovarian): 32.2 µM
TGI (TK-10 renal): 26.9 µM
TGI (CAKI-1 renal): 28 µM
TGI (KM12 colon): 25.6 µM
TGI (HCT-116 colon): 28.2 µM
TGI (SK-MEL-2 melanoma): 33.8 µM
TGI (SK-MEL-5 melanoma): 64.2 µM
TGI (SW-620 colon): 25.5 µM
TGI (MALME-3M melanoma): 28 µM
TGI (HOP-62 NSCLC): 28.6 µM
TGI (HCT-15 colon): 30.4 µM
TGI (NCI-H522 lung): 28.5 µM
TGI (DLD-1 colon): > 100 µM
TGI (OVCAR-5 ovarian): 30 µM
TGI (UACC-257 melanoma): 34.9 µM
TGI (786-0 renal): 25.1 µM
